Laboratory results taken from patent publication US20100210611A1, “COMBINATION THERAPY” (priority 2007, published 2010).
Where “and” joins values, the source holds several entries; their conditions need not be identical. Equal values may be shown once.

Key:
Assay type in all cases: physicochemical
[1] = Blend uniformity (individual capsule assay); conditions: HPLC, Mean ± RSD
Method: To assess blend uniformity, capsules from each blend were opened and rinsed with methanol. The solution was sonicated for 5 minutes at room temperature, centrifuged at 3000 rpm for 15 minutes then assayed using a UV-VIS spectrophotometer at a wavelength of 346 nm. […]
To assess blend uniformity, the blend was sampled randomly from the glass vial. The drugs were extracted analogous to that described in section Blend Uniformity for Example 1. However, the content of montelukast acid and mometasone furoate were analyzed by High Performance Liquid Chromatography (HPLC) employing a phenyl column with a controlled temperature of 50° C., a mixture of water containing 0.2% trifluoroacetic acid (TFA) and acetonitrile containing 0.2% TFA (53:47) as the mobile phase at a flow rate 2 ml/min and UV-detection at 248 nm.
The blend uniformity was assessed in a manner analogous to that described in the Blend Uniformity section in Example 4, except the content of montelukast acid and ciclesonide were analyzed by High Performance Liquid Chromatography (HPLC) employing a phenyl column with a controlled temperature of 50° C., a mixture of water containing 0.2% trifluoroacetic acid (TFA) and acetonitrile containing 0.2% TFA (40:60) at a flow rate 2 ml/min and UV-detection at 248 nm.

[2] = Dose uniformity, Dosage Unit Sampling Apparatus (DUSA), USP <601>; conditions: Spinhaler; for Total recovered / amount in Device + Capsule: listed as MOM; for amount in Device + Capsule: nominal 1000 μg MON, 400 μg MOM
Method: Dose uniformity was determined using Apparatus B (Dosage Unit Sampling Apparatus—DUSA) at a flow rate of 100 L/min (test described in United States Pharmacopoeia (USP) 27 Chapter <601>). The USP recommends selecting a flow rate that creates a pressure drop of 4 kPa across the inhaler. With the Spinhaler, a 4 kPa pressure drop could not be achieved even at the maximum flow rate of 100 L/min. Based on the recommendations of Byron, et al., a flow rate of 100 L/min was selected since the Spinhaler is a low resistance device. See Michael Hindle and Peter R. Byron, “Dose emissions from marketed dry powder inhalers”, International Journal of Pharmaceutics 116 (1995) 169-177. The test was run for 2.4 seconds in order to pull 4 L of air. After a shot had been delivered, all pieces of the DUSA including the mouthpiece adapter were rinsed with solvent. To determine the amount of drug retained in the inhaler, all pieces of the inhaler were rinsed with solvent including the interior of the capsule. The samples were then assayed using the UV-Vis spectrophotometer.
Shot weight was obtained by measuring the weight loss due to the actuation of the device. The device was tared, a “shot” was wasted in the DUSA and the device was re-weighed to obtain the delivered shot weight. Dose and shot weight were deemed acceptable if they were within 75% to 125% of the theoretical values (USP <601>).
Dose Uniformity (DU) was performed according to USP Chapter <601> by using DUSA Apparatus B with the Spinhaler® device which is analogous to that described in section Dose Uniformity for Example 1. However, the HPLC was used to analyze the content of the drugs as described in the Blend Uniformity in this example.
Dose Uniformity was performed according to USP Chapter <601> by using DUSA Apparatus B with the Spinhaler® device and in a manner analogous to that described in section Dose Uniformity in Example 4, except the HPLC was used to analyze the content of the drugs as described in the Blend Uniformity in this example.

[3] = Aerodynamic particle size distribution, Andersen cascade impaction (ACI); conditions: Spinhaler; for MMAD: cutoff diameter based on airflow rate of 28.3 L/min; for amount in ACI: including mouthpiece adapter
Excerpt: The Andersen cascade impaction (ACI) (Apparatus 3) was the device used to determine the aerodynamic size distribution. The impaction provided in vitro measurements of the fraction of the aerosol that has the potential to reach the alveolar region of the lung. This value is represented by the portion of particles detected below plate 2. The impaction was operated at the flow rate and test time according to the method described in USP <601>. Because the Spinhaler® is a low resistance device, it is difficult to achieve a pressure drop of 4 kPa, an adjustment of the air flow rate at the intake of the flow control was performed, as discussed above. Each impaction plate was coated with silicone grease (316 Dow Corning) to prevent particles from bouncing off the plates and returning to the air stream. All stages were used since the test flow rate was less than 60 L/min. All pieces of the impaction including the inhaler and capsule were rinsed with solvent, diluted to suitable volumes, sonicated, centrifuged and assayed using the UV-VIS spectrophotometer. The respirable portion was quantified by the in vitro fine particle fraction and fine particle mass. Dose uniformity and cascade impaction tests were carried out at controlled temperature (20-25° C.) and humidity (50% RH). […]
Aerodynamic size distribution was performed according to USP Chapter <601> by using ACI Apparatus 3 with the Spinhaler® device analogous to that described in section Aerodynamic Particle Size Distribution for Example 1. However, the HPLC was used to analyze the content of the drugs as described in the Blend Uniformity in this example.
Aerodynamic size distribution was performed according to USP Chapter <601> by using ACI Apparatus 3 with the Spinhaler® device in a manner analogous to that described in section Aerodynamic Particle Size Distribution in Example 4. The content of the drugs were analyzed as described in the Blend Uniformity in this example.

[4] = Particle size of unmilled and jet milled API
[5] = Moisture and light sensitivity
[6] = Example 4 blend, flow 61.5 L/min for 3.9 sec
[7] = Example 4 blend, flow 62.3 L/min for 3.9 sec
[8] = Example 4 blend, flow 62.8 L/min for 3.8 sec
[9] = Example 4 blend, listed as mometasone furoate
[10] = Milled API, Microtrac data, after sonication for 60 seconds
[11] = Unmilled API, optical microscopy
[12] = Example 5 blend, listed as ciclesonide

## C[C@@H]1C[C@H]2[C@@H]3CCC4=CC(=O)C=C[C@]4(C)[C@@]3(Cl)[C@@H](O)C[C@]2(C)[C@@]1(OC(=O)c1ccco1)C(=O)CCl [Mometasone Furoate, mometasone furoate]
[1]; Example 4 blend (montelukast acid 4%, mometasone furoate 1.6%)
  Amount Recovered (μg/Capsule): 386.8 µg and 371.6 µg and 389.5 µg
[1]; Example 4 blend (montelukast acid 4%, mometasone furoate 1.6%), mean
  Amount Recovered (μg/Capsule): 382.6 ± 2.6 µg
[1]; Example 4 blend
  Amount Recovered, %: 93.9% and 93.5% and 95.8%
[1]; Example 4 blend, mean
  Amount Recovered, %: 94.4 ± 1.4%
[2]; Example 4 blend
  DU based on nominal dose, % (Device + Capsule): 44.5%
  DU based on nominal dose, % (printed in Adapter + Filter column): 55.5%
  DU based on total recovered, % (Device + Capsule): 44.5%
  DU based on total recovered, % (printed in Adapter + Filter column): 55.5%
[2]; [6]
  Total recovered: 397.04 µg and 394.77 µg and 399.78 µg
  amount in Device + Capsule: 179.94 µg and 178.36 µg and 177.83 µg
[2]; [7]
  Total recovered: 408.74 µg and 407.23 µg
  amount in Device + Capsule: 165.97 µg and 165.37 µg
[2]; [8]
  Total recovered: 394.15 µg and 396.73 µg
  amount in Device + Capsule: 187.90 µg and 189.44 µg
[3]; Example 4 blend
  FPD: 43.5 µg and 53.9 µg and 41.8 µg
  FPF: 21.0% and 22.7% and 22.1%
  GSD: 1.5
  Total recovered: 404 µg and 402 µg and 395 µg
  amount in inhaler: 198 µg and 165 µg and 206 µg
  MMAD: 3.9 μm and 4.1 μm
  amount in ACI: 207 µg and 237 µg and 189 µg
[3]; [9]
  MMAD: 4.0 μm
  FPF: 22%
[3]; Example 4 blend, mean
  MMAD: 4.0 μm
  amount in ACI: 211 µg
  FPD: 46.4 µg
  FPF: 21.9%
  GSD: 1.4
  Total recovered: 400 µg
  amount in inhaler: 189 µg

## O=C(NC1CC1)c1cn(-c2cccc(C#Cc3ccc[n+]([O-])c3)c2)c2ncccc2c1=O [Compound X, N-cyclopropyl-1-[3-(1-oxido-3-pyridinylethynyl)phenyl]-1,4-dihydro[1,8]-naphthyridin-4-one-3-carboxamide]
[4]; Milled API, Aerosizer data
  Particle size, 95%: 7.832 microns
  Particle size, Mean: 2.832 microns
[4]; [10]
  Particle size, 95%: 4.577 microns
  Particle size, Mean: 2.794 microns
[4]; [11]
  Particle size, 95%: 37 microns
  Particle size, Mean: 11 microns
[5]
  moisture and light sensitivity: moisture sensitive and photosensitive

## CC(C)C(=O)OCC(=O)[C@@]12O[C@H](C3CCCCC3)O[C@@H]1C[C@H]1[C@@H]3CCC4=CC(=O)C=C[C@]4(C)[C@H]3[C@@H](O)C[C@@]12C [Ciclesonide, ciclesonide]
[1]; Example 5 blend (montelukast acid 4%, ciclesonide 0.64%)
  Amount Recovered (μg/Capsule): 150.9 µg and 146.7 µg and 157.6 µg
[1]; Example 5 blend (montelukast acid 4%, ciclesonide 0.64%), mean of three capsules
  Amount Recovered (μg/Capsule): 151.1 ± 3.3 µg
[1]; Example 5 blend
  Amount Recovered, %: 93.3% and 93.7% and 92.5%
[1]; Example 5 blend, mean of three capsules
  Amount Recovered, %: 93.2 ± 0.6%
[2]; Example 5 blend
  DU based on nominal dose, % (Device + Capsule): 35.2%
  DU based on nominal dose, % (printed in Adapter + Filter column): 61.7%
  DU based on total recovered, % (Device + Capsule): 36.3%
  DU based on total recovered, % (printed in Adapter + Filter column): 63.7%
[3]; Example 5 blend
  FPD: 33.6 µg and 31.1 µg and 41.4 µg
  FPF: 30.6% and 29.1% and 33.9%
  GSD: 1.7 and 1.5
  Total recovered: 177 µg and 160 µg and 178 µg
  amount in inhaler: 67 µg and 53 µg and 56 µg
  MMAD: 3.6 μm and 3.8 μm
  amount in ACI: 110 µg and 107 µg and 122 µg
[3]; [12]
  MMAD: 3.7 μm
  FPF: 31%
[3]; Example 5 blend, mean
  MMAD: 3.7 μm
  amount in ACI: 113 µg
  FPD: 35.5 µg
  FPF: 31.2%
  GSD: 1.6
  Total recovered: 172 µg
  amount in inhaler: 59 µg
